Data: patent publication US8278032B2, “Transporter protein in mammal and utilization of the same” (priority 2005, dated 2012)
Like-named read-outs stand apart in the source and are kept apart here.

Assays:
mMATE1 = target: T1, mMATE1 (Mus musculus, UniProt Q8K0H1); test: Inhibition of RI-labeled TEA uptake in HEK293 cells expressing mMATE1; type: cell-based; conditions: for remaining activity at 1000 µM: compound 1 mM;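 for all read-outs here: transfected HEK293 cells held 5 min at 37 °C before tracer addition, uptake read as radioactivity retained on a 0.45-µm membrane filter, mean ± SD of three to nine experiments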
T1 construct: expressed in transfected cells; host or cells: HEK293
T1 sequence (Q8K0H1 with tags, fused parts or gaps): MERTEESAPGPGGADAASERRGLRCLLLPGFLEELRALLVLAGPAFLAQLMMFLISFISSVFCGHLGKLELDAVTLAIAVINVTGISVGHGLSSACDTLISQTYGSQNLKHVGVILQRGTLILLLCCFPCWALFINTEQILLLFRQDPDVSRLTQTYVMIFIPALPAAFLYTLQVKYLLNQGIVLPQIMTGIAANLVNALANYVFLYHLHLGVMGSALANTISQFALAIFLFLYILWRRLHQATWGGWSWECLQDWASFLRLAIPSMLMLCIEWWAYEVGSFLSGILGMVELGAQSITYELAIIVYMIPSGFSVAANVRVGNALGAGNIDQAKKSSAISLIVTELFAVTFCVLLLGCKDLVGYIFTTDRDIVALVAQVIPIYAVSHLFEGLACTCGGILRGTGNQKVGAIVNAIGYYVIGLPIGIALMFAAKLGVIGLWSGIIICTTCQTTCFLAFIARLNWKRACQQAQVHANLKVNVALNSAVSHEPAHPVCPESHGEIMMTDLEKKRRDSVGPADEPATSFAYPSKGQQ

hMATE1 = target: T2, hMATE1 (Homo sapiens, UniProt Q96FL8); test: Inhibition of RI-labeled TEA uptake in HEK293 cells expressing hMATE1; conditions: for TEA uptake activity percent taking the level with addition of no compound as 100% (% ± S.D.): 50 μM RI-labeled TEA, pH 8.0, HEK293 cells expressing hMATE1; for Inhibition of TEA uptake activity (in words, summary of Table 1): MATE1 expressing HEK293 cells, 50 μM TEA, pH 8.0
T2 sequence (Q96FL8 1-570): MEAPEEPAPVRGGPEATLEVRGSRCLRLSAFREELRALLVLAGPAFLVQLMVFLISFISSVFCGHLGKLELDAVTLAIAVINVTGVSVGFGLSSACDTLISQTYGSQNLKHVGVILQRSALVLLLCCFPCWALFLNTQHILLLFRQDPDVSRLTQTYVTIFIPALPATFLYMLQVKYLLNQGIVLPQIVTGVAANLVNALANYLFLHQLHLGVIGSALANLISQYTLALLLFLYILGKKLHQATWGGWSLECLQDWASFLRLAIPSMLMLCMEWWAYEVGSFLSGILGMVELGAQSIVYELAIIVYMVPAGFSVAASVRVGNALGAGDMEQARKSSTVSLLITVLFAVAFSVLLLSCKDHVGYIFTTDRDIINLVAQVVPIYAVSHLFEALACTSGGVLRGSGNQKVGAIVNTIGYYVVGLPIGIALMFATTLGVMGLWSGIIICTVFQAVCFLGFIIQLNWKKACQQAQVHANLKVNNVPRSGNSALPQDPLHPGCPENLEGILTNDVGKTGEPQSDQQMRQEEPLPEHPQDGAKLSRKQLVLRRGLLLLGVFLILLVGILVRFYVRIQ

[1] = 50 μM RI-labeled TEA, pH 8.0, HEK293 cells expressing mMATE1, read-out: TEA uptake activity percent taking the level with addition of no compound as 100% (% ± S.D.)

Q: How did the remaining activity at 1000 µM (mMATE1; [1]) turn out when CNC(=O)c1cccnc1 [NMN, N-methylnicotinamide] was run?
A: 115 ± 8.9%

Q: And the “TEA uptake activity percent taking the level with addition of no compound as 100% (% ± S.D.)” value (hMATE1; compound 1 mM)?
A: 93.5 ± 1.9%

Q: N[C@@H](Cc1cc(I)c(Oc2cc(I)c(O)c(I)c2)c(I)c1)C(=O)O [Thyroxine] was tested. Which “TEA uptake activity percent taking the level with addition of no compound as 100% (% ± S.D.)” value (hMATE1; compound 0.1 mM) did it give?
A: 113.0 ± 4.5%

Q: CN/C(=N/CCSCc1nc[nH]c1C)NC#N [Cimetidine] was tested. Which remaining activity at 10 µM (mMATE1; compound 0.01 mM, 50 μM RI-labeled TEA, pH 8.0, HEK293 cells expressing mMATE1, read-out: TEA uptake activity percent taking the level with addition of no compound as 100% (% ± S.D.)) did it give?
A: 29.3 ± 5.2%

Q: And the remaining activity at 100 µM (mMATE1; compound 0.1 mM, 50 μM RI-labeled TEA, pH 8.0, HEK293 cells expressing mMATE1, read-out: TEA uptake activity percent taking the level with addition of no compound as 100% (% ± S.D.))?
A: 3.1 ± 5.1%

Q: And the “Inhibition of TEA uptake activity (in words, summary of Table 1)” value (“Inhibition of TEA uptake activity” for short) (hMATE1)?
A: strongly inhibited

Q: What about the “TEA uptake activity percent taking the level with addition of no compound as 100% (% ± S.D.)” value (hMATE1; compound 0.01 mM) of the same compound?
A: 44.7 ± 7.4%

Q: What about the “TEA uptake activity percent taking the level with addition of no compound as 100% (% ± S.D.)” value (hMATE1; compound 0.1 mM) of the same compound?
A: 9.7 ± 8.7%

Q: Which results are given for CCc1nc(N)nc(N)c1-c1ccc(Cl)cc1 [Pyrimethamine]?
A: TEA uptake activity percent taking the level with addition of no compound as 100% (% ± S.D.) (hMATE1; compound 0.00001 mM): 45.2 ± 3.5%; TEA uptake activity percent taking the level with addition of no compound as 100% (% ± S.D.) (hMATE1; compound 0.0001 mM): 19.8 ± 1.6%

Q: How did the “TEA uptake activity percent taking the level with addition of no compound as 100% (% ± S.D.)” value (hMATE1; compound 0.1 mM) turn out when CC/C(=C(/CC)c1ccc(O)cc1)c1ccc(O)cc1 [Diethylstilbestrol] was run?
A: 94.9 ± 7.8%

Q: CC(C)(C)c1cc(C=C(C#N)C#N)cc(C(C)(C)C)c1O [SF6847] was tested. Which “Effect on TEA uptake activity (in words)” value (hMATE1; HEK293 cells expressing human MATE1, FIG. 9(e), valinomycin 5 μM with 65 mM potassium chloride, nigericin 5 μM with potassium chloride, SF6847 10 μM) did it give?
A: greatly decreased

Q: Which “TEA uptake activity percent taking the level with addition of no compound as 100% (% ± S.D.)” value (hMATE1; compound 0.001 mM) does the source give for C[C@H]1O[C@@H](O[C@H]2[C@@H](O)C[C@H](O[C@H]3[C@@H](O)C[C@H](O[C@H]4CC[C@@]5(C)[C@H](CC[C@@H]6[C@@H]5C[C@@H](O)[C@]5(C)[C@@H](C7=CC(=O)OC7)CC[C@]65O)C4)O[C@@H]3C)O[C@@H]2C)C[C@H](O)[C@@H]1O [Digoxin] here?
A: 102.5 ± 7.3%

Q: Which remaining activity at 1000 µM (mMATE1; [1]) does the source give for O=c1[nH]c(=O)c2[nH]c(=O)[nH]c2[nH]1 [Uric acid] here?
A: 109 ± 6.4%

Q: What about the “Inhibition of TEA uptake activity” value (hMATE1) of the same compound?
A: not inhibited

Q: What about the “TEA uptake activity percent taking the level with addition of no compound as 100% (% ± S.D.)” value (hMATE1; compound 1 mM) of the same compound?
A: 107.8 ± 2.7%

Q: What does the source list for C[C@]12CCC(=O)C=C1CC[C@@H]1[C@@H]2CC[C@]2(C)C(=O)CC[C@@H]12 [Androstenedione]?
A: remaining activity at 100 µM (mMATE1; HEK293, pH 8, read-out: TEA uptake activity percent taking the level with addition of no compound as 100% (% ± S.D.)): 8.6 ± 1.7%; TEA uptake activity percent taking the level with addition of no compound as 100% (% ± S.D.) (hMATE1; compound 0.1 mM): 36.6 ± 0.9%

Q: With Rhodamine 123 [Rhodamine123] as the compound, how does the “TEA uptake activity percent taking the level with addition of no compound as 100% (% ± S.D.)” value (mMATE1; compound 0.01 mM, 50 μM RI-labeled TEA, pH 8.0, HEK293 cells expressing mMATE1) read?
A: 0.5 ± 6.2%

Q: What about the “Inhibition of TEA uptake activity” value (hMATE1) of the same compound?
A: inhibited

Q: What about the “TEA uptake activity percent taking the level with addition of no compound as 100% (% ± S.D.)” value (hMATE1; compound 0.01 mM) of the same compound?
A: 5.0 ± 6.4%

Q: For C[n+]1ccc(-c2cc[n+](C)cc2)cc1 [Paraquat], which “TEA uptake activity percent taking the level with addition of no compound as 100% (% ± S.D.)” value (hMATE1; compound 1 mM) is on record?
A: 57.2 ± 6.8%

Q: With CN1[C@@H]2CC[C@H]1C[C@@H](OC(=O)C(CO)c1ccccc1)C2 (stereo partly shown) [Atropine] as the compound, how does the “TEA uptake activity percent taking the level with addition of no compound as 100% (% ± S.D.)” value (hMATE1; compound 0.1 mM) read?
A: 74.6 ± 5.5%

Q: How did the “TEA uptake activity percent taking the level with addition of no compound as 100% (% ± S.D.)” value (hMATE1; compound 0.01 mM) turn out when C=C[C@H]1C[N@@]2CC[C@H]1C[C@H]2[C@H](O)c1ccnc2ccc(OC)cc12 [Quinine] was run?
A: 30.4 ± 2.8%

Q: With Catechin as the compound, how does the “TEA uptake activity percent taking the level with addition of no compound as 100% (% ± S.D.)” value (hMATE1; compound 0.1 mM) read?
A: 104.0 ± 4.4%

Q: How did the “TEA uptake activity percent taking the level with addition of no compound as 100% (% ± S.D.)” value (hMATE1; compound 0.1 mM) turn out when CC[C@@H]1C(=O)OC[C@@H]1Cc1cncn1C [Pilocarpine] was run?
A: 96.1 ± 0.4%

Q: For COc1ccc2cc3[n+](cc2c1OC)CCc1cc2c(cc1-3)OCO2 [Berberin], which “TEA uptake activity percent taking the level with addition of no compound as 100% (% ± S.D.)” value (hMATE1; compound 0.001 mM) is on record?
A: 69.2 ± 2.1%

Q: And the “TEA uptake activity percent taking the level with addition of no compound as 100% (% ± S.D.)” value (hMATE1; compound 0.01 mM)?
A: 20.4 ± 2.4%

Q: What about the “TEA uptake activity percent taking the level with addition of no compound as 100% (% ± S.D.)” value (hMATE1; compound 0.1 mM) of the same compound?
A: 4.2 ± 0.9%

Q: With C[C@@H]1O[C@@H](OC[C@H]2O[C@@H](Oc3c(-c4ccc(O)c(O)c4)oc4cc(O)cc(O)c4c3=O)[C@H](O)[C@@H](O)[C@@H]2O)[C@H](O)[C@H](O)[C@H]1O [Rutin] as the compound, how does the “TEA uptake activity percent taking the level with addition of no compound as 100% (% ± S.D.)” value (hMATE1; compound 0.1 mM) read?
A: 71.8 ± 3.6%

Q: For CCN(CC)CCCC(C)Nc1c2ccc(Cl)cc2nc2ccc(OC)cc12 (stereo not shown) [Quinacrine], which “TEA uptake activity percent taking the level with addition of no compound as 100% (% ± S.D.)” value (hMATE1; compound 0.01 mM) is on record?
A: 41.6 ± 8.2%
